{
  "source": "patent US6352982B1",
  "about": "“4,1-benzoxazepines, their analogues, and their use as somatostatin agonists” (Takeda Chemical Industries, Ltd., priority 1997, dated 2002)",
  "key": {"[1]": {"test_system": "primary cell culture of the rat anterior pituitary", "experiment": "Inhibition of growth hormone (GH) secretion from primary cell culture", "assay_type": "cell-based", "details": "GHRH-stimulated, 37° C. for 3 hours; for EC50: Rattus norvegicus, GH by RIA, read-out: ED50 values, inhibition of GH secretion", "procedure": "The anterior pituitaries were excised from the decapitated skull of 40 unanesthetized male rats of 8 weeks of age. The anterior pituitaries were placed in a laboratory dish containing the buffer A (consisting of 137 mM of sodium chloride, 5 mM of potassium chloride, 0.7 mM of disodium hydrogen phosphate, 25 mM of 2-[4-(2-hydroxyethyl)-1-piperazinyl]ethane sulfonic acid (HEPES) (pH 7.3), and 50 μg/ml of gentamicin sulfate] and washed once with the buffer A. Each anterior pituitary was cut into 4 pieces by scissors and washed twice again. The pieces of the anterior pituitaries were incubated in 30 ml of Enzyme Solution I [buffer A solution containing 0.4% of collagenase (Boehringer Mannheim), 0.4% of bovine serum albumin, 10 μg/ml of deoxyribonuclease (Sigma) and 0.2% of glucose] at 37° C. under shaking for 1 hour. After dispersion of the pieces of the anterior pituitaries by a Komagome pipette, the solution was centrifuged (480×g, for 6 minutes). The supernatant was discarded. The sediment was suspended in 30 ml of Enzyme Solution II [buffer A solution containing 0.25% of pancreatin (Sigma)] and incubated at 37° C. under shaking for 8 minutes. After adding 2 ml of fetal calf serum, the cell suspension was centrifuged (480×g, for 6 minutes) again and the supernatant was discarded. The sediment was suspended in 10 ml of Medium I [Dulbecco modified Eagle's Medium (DMEM) containing 10% of fetal calf serum, 20 mM of HEPES (pH 7.3), 50 U/ml of penicillin G and 50 μg/ml of streptomycin] and filtered through nylon mesh. The cells thus obtained were washed twice with 10 ml of Medium I. The number of the cells was counted, and the cells were suspended in Medium I in the cell density of 1.5×10^5 cells/ml. The aliquots of 1 ml each of the cell suspension were placed in the wells of 24-well plate and incubated at 37° C. for 3 days in the carbon dioxide incubator under 5% carbon dioxide-95% air environment. The cells were washed twice with 1 ml of Medium II (Medium I containing 0.2% bovine serum albumin instead of 10% fetal calf serum) and then incubated in 1 ml of Medium II for 1 hour. The supernatant was discarded. To each well of the 24-well plate 0.8 ml each of Medium II was added, and 0.1 ml of Medium II containing somatostatin-14 (SS-14) or the compound of Example 5 or the compound of Example 102 in the concentration of 10 times the final concentration and 0.1 ml of 10 nM growth hormone releasing hormone (GHRH) were added thereto. After incubation at 37° C. for 3 hours, 0.6 ml of the supernatant of the each well was collected to obtain a supernatant solution by the centrifugation on 1,000×g for 8 minutes. GH concentrations in the supernatant were determined by radioimmunoassay (RIA) kit of Amersham."}, "[2]": {"biological_target": "T1, human somatostatin receptor SSTR1 (Homo sapiens, UniProt P30872)", "T1 construct": "expressed in transfected cells; host or cells: CHO (dhfr-) cells, strain SSTR1-8-3", "T1 sequence (P30872 whole entry)": "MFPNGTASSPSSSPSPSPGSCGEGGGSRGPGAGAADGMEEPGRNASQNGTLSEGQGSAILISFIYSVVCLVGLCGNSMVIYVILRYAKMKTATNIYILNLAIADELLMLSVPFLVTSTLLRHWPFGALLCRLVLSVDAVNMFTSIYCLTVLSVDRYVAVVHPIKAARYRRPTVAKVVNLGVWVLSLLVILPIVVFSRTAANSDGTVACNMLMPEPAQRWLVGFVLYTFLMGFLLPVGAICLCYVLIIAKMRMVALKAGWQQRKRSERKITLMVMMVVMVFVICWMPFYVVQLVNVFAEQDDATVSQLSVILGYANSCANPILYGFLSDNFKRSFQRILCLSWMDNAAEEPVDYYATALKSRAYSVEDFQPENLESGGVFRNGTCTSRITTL", "experiment": "Binding inhibition of 125I-somatostatin, CHO cell membrane fraction", "details": "125I-somatostatin binding, 25° C. for 60 minutes, read-out: Activities for human somatostatin receptor (IC50 value) SSTR1", "procedure": "A human somatostatin receptor expression CHO cell strain, SSTR1-8-3, SSTR2-HS5-9, SSTR3-15-19, SSTR4-1-2 or SSTR5-32-4 (10^9), was suspended in a phosphate buffered saline containing 5mM of EDTA (PBS-EDTA). The suspension was centrifuged. To the cell pellet was added 10 ml of a homogenation buffer solution for cells (10 mM NaHCO3, 5 mM EDTA, pH=7.5). The mixture was homogenized by a Politron homogenizer and centrifuged at 400×g for 15 minutes. The supernatant obtained was farther centrifuged at 100,000×g for an hour to obtain a precipitate of the membrane fraction. The precipitate was suspended in 2 ml of a buffer solution for assay ([…], 0.1% of BSA (bovine serum albumin) and […], 1 μ/ml of pepstatin, 20 μg/ml of leupeptin, 10 μg/ml of phosphoramide, pH=7.5). The suspension was centrifuged at […] for an hour. The membrane fraction recovered as precipitate was suspended again in 20 ml of buffer solution for assay. The suspension was placed in tubes and stored at −80° C. The suspension was thawed when used, and used at every use.\nThe membrane fraction prepared in Example 1 was diluted with a buffer solution for assay to adjust the concentration to 3 μg/ml. The diluate was placed in tubes each in quantity of 173 μl. To this were simultaneously added 2 μl of a solution of a compound in DMSO and 25μl of a 200pM radioisotope-labeled somatostatin (^125I-somatostatin: Amersham) solution. For measurement of the maximum binding, a reaction mixture added with 2 μl of DMSO and 25μl of a 200pM ^125I-somatostatin solution was prepared. For measurement of non-specific binding, a reaction mixture added with 2 μl of a 100 μM somatostatin solution diluted in DMSO and 25 μl of a 200pM ^125I-somatostatin solution was prepared at the same time. The mixtures were allowed to react at 25° C. for 60 minutes. Then, the reaction mixture was filtered by aspiration using a GF/B glass fiber filter paper (Whatman) treated with polyethylenimine. After filtration, the radioactivity of 125I-somatostatin remaining on the filter paper was measured by a γ-counter.\nThe binding rate (%) of each compound was calculated by the formula: […]\n(where PBM: Percent maximum Binding, B: radioactivity when a compound was added, Bo: maximum binding radioactivity, NSB: non-specific binding radioactivity). The binding rates were calculated by changing the concentrations of the compound to obtain the 50% inhibiting concentration of the compound (IC50 value) by the Hil l plots.\nThe activities (IC50 value, μM) of the compounds for each human somatostatin receptor obtained by the above method are shown in the following Table 5."}, "Sprague-Dawley (SD) rats": {"test_system": "Sprague-Dawley (SD) rats", "experiment": "Inhibition of GH secretion using Sprague-Dawley rats", "assay_type": "in vivo, rat", "details": "male SD rats, 3 mg/kg intraperitoneally", "procedure": "Male rats of SD strain were divided into the compound treatment group (n=5) and the control group (n=4). The rats in the compound treatment group were administered intraperitoneally with 0.5% methylcellulose saline solution containing the compound of Example 5 in the concentration of 3 mg/kg/5 ml, and the animals of the control group were administered intraperitoneally with 5 ml/kg of 0.5% methylcellulose saline solution. Four hours after administration, the rats were decapitated without anesthesia and whole blood was collected. The aliquots of 1 ml each of the plasma were obtained from the blood by centrifugation at 2,500 rpm at 4° C. for 30 minutes and stored at −20° C. Plasma GH concentrations were determined by RIA using the rat GH [ I] assay system (Amersham)."}},
  "note": "Structures can show the parent of a compound that is named as a salt.",
  "data": [
    {"smiles": "NCc1cccc(C2OC(CC(=O)NCc3ccccc3F)C(=O)N(Cc3ccc(O)cc3)c3ccc(Cl)cc32)c1", "note": "(stereo not drawn) [Example 102, 3,5-Trans-N-(2-fluorobenzyl)-5-(3-aminomethylphenyl)-7-chloro-1-(4-hydroxybenzyl)-2-oxo-1,2,3,5-tetrahydro-4,1-benzoxazepine-3-acetamide•monohydrochloride]", "values": [
      {"measurement": "GH secretion from the primary cell culture of rat anterior pituitary", "setting": "[1]", "result": "inhibited dose-dependently"},
      {"measurement": "EC50", "setting": "[1]", "result": 10, "unit": "nM"},
      {"measurement": "IC50", "setting": "[2]", "result": "> 1000", "unit": "nM"}
    ]},
    {"smiles": "NCc1cccc(C2OC(CC(=O)NCc3ccccc3F)C(=O)N(Cc3ccc(-c4ccccc4)cc3)c3ccc(Cl)cc32)c1", "note": "(stereo not drawn) [Example 5, 3,5-Trans-N-(2-fluorobenzyl)-5-(3-aminomethylphenyl)-1-(4-biphenylmethyl)-7-chloro-2-oxo-1,2,3,5-tetrahydro-4,1-benzoxazepine-3-acetamide•monohydrochloride]", "values": [
      {"measurement": "Plasma GH concentrations mean ± SD", "setting": "Sprague-Dawley (SD) rats; four hours after administration, n = 5", "result": "11.2 ± 6.5", "unit": "ng/mL"},
      {"measurement": "Plasma GH concentration versus control", "setting": "Sprague-Dawley (SD) rats; p<0.05", "result": "declined significantly"},
      {"measurement": "GH secretion from the primary cell culture of rat anterior pituitary", "setting": "[1]", "result": "inhibited dose-dependently"},
      {"measurement": "EC50", "setting": "[1]", "result": 8, "unit": "nM"}
    ]}
  ]
}
